According to the supplement of paper PMC11208160:

Assay: recombinant UMI read abundance after kanamycin selection (control-corrected) (log10(CPM+1)); higher = more efficient recombination; extreme values may be limits of the assay; sequences stand for … in AGTGCAGAGAAAATCGGCCAGTTTTCTCTGCCTGCAGTCCGCATGCCGTGGGACCCCTTGGGTTCTAACCTGTTGCCTAGATTTATGCAGCGGACTGCCTTTCTCCCAAAGTGATAAACCGG…AGGTTGGTTTCACT; site = the 11-nt donor
Procedure, shortened: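 The measure is log10(CPM+1) for recombinant UMIs. These were PCR-amplified across the donor–target junction and sequenced after Escherichia coli carrying a donor and donor-binding-loop pair library and a target plasmid with T7-inducible IS621 bridge recombinase was plated on IPTG (0.07 mM) plus kanamycin or unselected. CPM were averaged over two replicates and scaled by control-derived factors.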
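Further: IS621 bridge recombinase in Escherichia coli cells against a fixed T5 target plasmid.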

| Sequence | recombinant UMI read abundance (log10) |
| --- | --- |
| CAACTATCATGGACCGGTTTTCCCGGTAATCCGTATTTGAT (site CAACTATCTAT) | 0.885 |
| CAAGAATCATGGACCGGTTTTCCCGGTAATCCGTATTTGAC (site CAAGAATCTGT) | 2.88 |
| CAAGAATCATGGACCGGTTTTCCCGGTAATCCGTATTTGAC (site CTAGTATCTGT) | 0.416 |
| CAAGACACATGGACCGGTTTTCCCGGTAATCCGTATTTGGG (site CAAGACACTCC) | 1.28 |
| CAAGACACATGGACCGGTTTTCCCGGTAATCCGTATTTGGG (site CAAGCCACTCC) | 0.00576 |
| CAAGACACATGGACCGGTTTTCCCGGTAATCCGTATTTGGG (site CAAGGCACTCC) | 0.0364 |
| CAAGACACATGGACCGGTTTTCCCGGTAATCCGTATTTGGG (site CAAGTCACTCC) | 0.274 |
| CAAGATACATGGACCGGTTTTCCCGGTAATCCGTATTTGGT (site CAAGATACTAC) | 1.97 |
| CAAGCACCATGGACCGGTTTTCCCGGTAATCCGTATTTGTG (site CAAGCACCTCA) | 0.018 |
| CAAGCACCATGGACCGGTTTTCCCGGTAATCCGTATTTGTG (site CAAGCCCCTCA) | 0.00553 |
| CAAGCACCATGGACCGGTTTTCCCGGTAATCCGTATTTGTG (site CAAGCGCCTCA) | 0.00843 |
| CAAGCACCATGGACCGGTTTTCCCGGTAATCCGTATTTGTG (site CAAGCTCCTCA) | 0 |
| CAAGCAGCATGGACCGGTTTTCCCGGTAATCCGTATTTGCA (site CAAGCAGCTAG) | 1.22 |
| CAAGCAGCATGGACCGGTTTTCCCGGTAATCCGTATTTGCA (site CAAGCAGCTCG) | 1.43 |
| CAAGCAGCATGGACCGGTTTTCCCGGTAATCCGTATTTGCA (site CAAGCAGCTGG) | 1.06 |
| CAAGCAGCATGGACCGGTTTTCCCGGTAATCCGTATTTGCA (site CAAGCAGCTTG) | 2.81 |
| CAAGCAGCATGGACCGGTTTTCCCGGTAATCCGTATTTGGT (site CAAGCAGCTAA) | 0.922 |
| CAAGCAGCATGGACCGGTTTTCCCGGTAATCCGTATTTGGT (site CAAGCAGCTAC) | 1.73 |
| CAAGCAGCATGGACCGGTTTTCCCGGTAATCCGTATTTGGT (site CAAGCAGCTAG) | 1.5 |
| CAAGCAGCATGGACCGGTTTTCCCGGTAATCCGTATTTGGT (site CAAGCAGCTAT) | 1.85 |
| CAAGCGACATGGACCGGTTTTCCCGGTAATCCGTATTTGTG (site CAAGCGACTCA) | 1.19 |
| CAAGCGACATGGACCGGTTTTCCCGGTAATCCGTATTTGTG (site CAAGCGCCTCA) | 0.00397 |
| CAAGCGACATGGACCGGTTTTCCCGGTAATCCGTATTTGTG (site CAAGCGGCTCA) | 1.2 |
| CAAGCGACATGGACCGGTTTTCCCGGTAATCCGTATTTGTG (site CAAGCGTCTCA) | 0.756 |
| CAAGCTCCATGGACCGGTTTTCCCGGTAATCCGTATTTGTG (site CAAGCACCTCA) | 0.0218 |

| Sequence | recombinant UMI read abundance (log10) |
| --- | --- |
| CAAGCTCCATGGACCGGTTTTCCCGGTAATCCGTATTTGTG (site CAAGCCCCTCA) | 0.0101 |
| CAAGCTCCATGGACCGGTTTTCCCGGTAATCCGTATTTGTG (site CAAGCGCCTCA) | 0.0257 |
| CAAGCTCCATGGACCGGTTTTCCCGGTAATCCGTATTTGTG (site CAAGCTCCTCA) | 0.0252 |
| CAAGGCCCATGGACCGGTTTTCCCGGTAATCCGTATTTGGC (site CAAGGCCCTGC) | 2.11 |
| CAAGGTGCATGGACCGGTTTTCCCGGTAATCCGTATTTGTT (site CAAGGTGCTAA) | 2.59 |
| CAAGTAACATGGACCGGTTTTCCCGGTAATCCGTATTTGAC (site CAAGTAACTGT) | 3.09 |
| CAAGTAACATGGACCGGTTTTCCCGGTAATCCGTATTTGAC (site CTAGTATCTGT) | 0.497 |
| CAAGTATCATGGACCGGTTTTCCCGGTAATCCGTATTTGTC (site CAAGTATCTGA) | 2.66 |
| CAAGTATCATGGACCGGTTTTCCCGGTAATCCGTATTTGTC (site CTAGTATCTGT) | 0 |
| CAAGTCACATGGACCGGTTTTCCCGGTAATCCGTATTTGGC (site CAAGTCACTAC) | 0.739 |
| CAAGTCACATGGACCGGTTTTCCCGGTAATCCGTATTTGGC (site CAAGTCACTCC) | 0.402 |
| CAAGTCACATGGACCGGTTTTCCCGGTAATCCGTATTTGGC (site CAAGTCACTGC) | 2.99 |
| CAAGTCACATGGACCGGTTTTCCCGGTAATCCGTATTTGGC (site CAAGTCACTTC) | 0.596 |
| CAAGTCTCATGGACCGGTTTTCCCGGTAATCCGTATTTGAC (site CAAGTCTCTGT) | 3.08 |
| CAAGTCTCATGGACCGGTTTTCCCGGTAATCCGTATTTGAC (site CTAGTATCTGT) | 0.00697 |
| CAATCAACATGGACCGGTTTTCCCGGTAATCCGTATTTGTG (site CAATCAACTCA) | 0.737 |
| CAATCCCCATGGACCGGTTTTCCCGGTAATCCGTATTTGCT (site CAATACCCTAG) | 1.5 |
| CAATCCCCATGGACCGGTTTTCCCGGTAATCCGTATTTGCT (site CAATCCCCTAG) | 0.977 |
| CAATCCCCATGGACCGGTTTTCCCGGTAATCCGTATTTGCT (site CAATGCCCTAG) | 0 |
| CAATCCCCATGGACCGGTTTTCCCGGTAATCCGTATTTGCT (site CAATTCCCTAG) | 1.78 |
| CAATCGCCATGGACCGGTTTTCCCGGTAATCCGTATTTGTG (site CAAACGCCTCA) | 0.0185 |
| CAATCGCCATGGACCGGTTTTCCCGGTAATCCGTATTTGTG (site CAACCGCCTCA) | 0.0282 |
| CAATCGCCATGGACCGGTTTTCCCGGTAATCCGTATTTGTG (site CAAGCGCCTCA) | 0.0173 |
| CAATCGCCATGGACCGGTTTTCCCGGTAATCCGTATTTGTG (site CAATCGCCTCA) | 0.22 |
| CAATCGTCATGGACCGGTTTTCCCGGTAATCCGTATTTGCT (site CAATCGTCTAG) | 2.84 |

| Sequence | recombinant UMI read abundance (log10) |
| --- | --- |
| CAATCGTCATGGACCGGTTTTCCCGGTAATCCGTATTTGCT (site CGATCATCTAG) | 0 |
| CAATCTACATGGACCGGTTTTCCCGGTAATCCGTATTTGTC (site CAATCTACTGA) | 2.28 |
| CAATGGCCATGGACCGGTTTTCCCGGTAATCCGTATTTGCA (site AAATGGCCTTG) | 0 |
| CAATGGCCATGGACCGGTTTTCCCGGTAATCCGTATTTGCA (site CAATGGCCTTG) | 0.253 |
| CAATGGCCATGGACCGGTTTTCCCGGTAATCCGTATTTGCA (site GAATGGCCTTG) | 0 |
| CAATGGCCATGGACCGGTTTTCCCGGTAATCCGTATTTGCA (site TAATGGCCTTG) | 0.198 |
| CAATTACCATGGACCGGTTTTCCCGGTAATCCGTATTTGCT (site CAATTACCTAG) | 0 |
| CAATTACCATGGACCGGTTTTCCCGGTAATCCGTATTTGCT (site CAATTCCCTAG) | 0 |
| CAATTACCATGGACCGGTTTTCCCGGTAATCCGTATTTGCT (site CAATTGCCTAG) | 0 |
| CAATTACCATGGACCGGTTTTCCCGGTAATCCGTATTTGCT (site CAATTTCCTAG) | 0 |
| CAATTCCCATGGACCGGTTTTCCCGGTAATCCGTATTTGTT (site CAATTCCCTAA) | 1.71 |
| CAATTCCCATGGACCGGTTTTCCCGGTAATCCGTATTTGTT (site CAATTCCCTAC) | 0.942 |
| CAATTCCCATGGACCGGTTTTCCCGGTAATCCGTATTTGTT (site CAATTCCCTAG) | 1.41 |
| CAATTCCCATGGACCGGTTTTCCCGGTAATCCGTATTTGTT (site CAATTCCCTAT) | 1.15 |
| CAATTGACATGGACCGGTTTTCCCGGTAATCCGTATTTGCG (site CAATTGACTCG) | 2.58 |
| CAATTGGCATGGACCGGTTTTCCCGGTAATCCGTATTTGGA (site CAATTGGCTTC) | 0.902 |
| CAATTGGCATGGACCGGTTTTCCCGGTAATCCGTATTTGGA (site CACTTGGCTTC) | 0.0126 |
| CAATTGGCATGGACCGGTTTTCCCGGTAATCCGTATTTGGA (site CAGTTGGCTTC) | 0.585 |
| CAATTGGCATGGACCGGTTTTCCCGGTAATCCGTATTTGGA (site CATTTGGCTTC) | 0.313 |
| CACACAACATGGACCGGTTTTCCCGGTAATCCGTATTTGAA (site CACACAACTTT) | 1.84 |
| CACACGGCATGGACCGGTTTTCCCGGTAATCCGTATTTGAG (site CACACGGCTCT) | 1.83 |
| CACAGGGCATGGACCGGTTTTCCCGGTAATCCGTATTTGAG (site CACAGGGCTCT) | 1.97 |
| CACATATCATGGACCGGTTTTCCCGGTAATCCGTATTTGTC (site CACATATCTGA) | 1.5 |
| CACATATCATGGACCGGTTTTCCCGGTAATCCGTATTTGTC (site CCCATATCTGA) | 0.724 |
| CACATATCATGGACCGGTTTTCCCGGTAATCCGTATTTGTC (site CGCATATCTGA) | 0.92 |
